Measured values reported in publication PMC10979003, “Development and crystal structures of a potent second-generation dual degrader of BCL-2 and BCL-xL” (Nature Communications, 2024).
Each block holds one molecule with its values, some of them ahead of it. Residues, ends and D or L forms follow the SMILES beside them. *: point of attachment. Cbz = O=C(OCc1ccccc1)*

Tests used:
[1] = system: MOLT-4 T-ALL cells; assay: Potency against MOLT-4 T-ALL cells in vitro; format: cell-based; settings: Homo sapiens
[2] = system: RS4 B-ALL cells; assay: Potency against RS4 B-ALL cells in vitro; format: cell-based
[3] = system: BCL-xL/BCL-2; assay: Blocking of WH244-induced BCL-xL/BCL-2 degradation in Jurkat cells (immunoblot); format: cell-based, human; settings: for Effect of proteasome / NEDD8-activating enzyme inhibition on WH244-mediated degradation of BCL-xL and BCL-2: Jurkat cells
Experimental: The data are presented as mean ± s.d. from three replicate cell cultures in a representative experiment for Jurkat cells. h Left, WH244 induces polyubiquitination of WT, K22R BCL-2 and to some extent K17R but not K17/22R BCL-2 in 293T cells. 293T cells were co-transfected as indicated with Flag-BCL−2 WT or mutants and HA-tagged ubiquitin (HA-Ub) plasmids. After 36 h, cells were pretreated with MG132 (10 µM) for 2 h and then treated with or without WH244 (1 μM) for 5 h. The Flag-tagged proteins were immunoprecipitated (IP) and immunoblotted with HA or Flag antibody. Right, The input blot for this assay. Data are a representative of two independent experiments. Source data are provided as Source Data file.
A series of experiments were performed to assess the efficacy of WH244. […] These DC50 values were ~6.2 and 6.8-fold better than of 753b for BCL-xL (DC50 of 3.7 nM) and BCL-2 (DC50 of 50 nM), respectively. Also, WH244-mediated proteolysis of BCL-xL and BCL-2 was time-dependent with BCL-xL degrading faster than BCL-2 (Fig. 3c). […]
Cells were collected, washed once with ice-cold phosphate-buffered saline, pH 7.2 (PBS, cat. no. 20012027; Thermo Fisher Scientific) and lysed in RIPA lysis buffer (Cat. No. BP-115DG, Boston Bio Products, Ashland, MA, USA) supplemented with protease and phosphatase inhibitor cocktails (Cat. No. PPC1010, Sigma-Aldrich, St. Louis, MO, USA) through sonication. […] The protein concentration in the supernatants was determined using the Pierce BCA protein Assay kit (cat. no. 23225, Thermo Fisher Scientific). […] The membranes were blocked with non-fat dry milk (5% wt/vol) in 1×Tris- buffered saline-Tween-20 (TBST) for 1 h at room temperature, and were subsequently probed with primary antibodies at a pre-determined optimal concentration in non-fat dry milk (5% wt/vol in TBST) overnight at 4 °C. […] Following sufficient washing with TBST, the membranes were exposed with ECL Western Blotting Substrate (Bio-Rad), and the signal was detected using the ChemiDoc MP Imaging System (Bio-Rad) and quantified using the ImageJ (v1.53a) software from NIH. […]

[4] = system: human platelets; assay: Potency against human platelets in vitro; format: cell-based; settings: Platelet; human platelets in vitro
[5] = system: BCL-xL and BCL-2; design: method as in Khan S et al. Nat Med, 25: 1938-1947, 2019; settings: ref Khan S et al. Nat Med, 25: 1938-1947, 2019; cited from earlier work

- IC50 [1]: 220 nM
- IC50 [2]: 38 nM
- IC50 [4]: 310 nM
SMILES: CC1(C)CCC(c2ccc(Cl)cc2)=C(CN2CCN(c3ccc(C(=O)NS(=O)(=O)c4ccc(N[C@H](CCN5CCOCC5)CSc5ccccc5)c(S(=O)(=O)C(F)(F)F)c4)cc3)CC2)C1 [ABT263, Navitoclax]
- Effect of pretreatment on degradation of BCL-xL and BCL-2 with WH244 ([3]; two hours pretreatment, then six-hour WH244, Jurkat cells): completely blocked

SMILES: Cc1ncsc1-c1ccc([C@H](C)NC(=O)[C@@H]2C[C@@H](O)CN2C(=O)[C@@H](NC(=O)CCCCCC(=O)N2CCN(CC[C@H](CSc3ccccc3)Nc3ccc(S(=O)(=O)NC(=O)c4ccc(N5CCN(CC6=C(c7ccc(Cl)cc7)CCC(C)(C)C6)CC5)cc4)cc3S(=O)(=O)C(F)(F)F)CC2)C(C)(C)C)cc1 [DT2216]
- Reduction in binding affinity to BCL-xL and BCL-2 on converting ABT263 into DT2216 [5]: about 8 fold

SMILES: CC(C)C[C@@H](C=O)NC(=O)[C@H](CC(C)C)NC(=O)[C@H](CC(C)C)NC(=O)OCc1ccccc1 [MG132] (Cbz-Leu-Leu-Leu-aldehyde)
- Effect of proteasome / NEDD8-activating enzyme inhibition on WH244-mediated degradation of BCL-xL and BCL-2 [3]: abrogated

SMILES: NS(=O)(=O)OC[C@@H]1C[C@@H](n2ccc3c(N[C@H]4CCc5ccccc54)ncnc32)C[C@@H]1O [MLN4924]
- Effect of proteasome / NEDD8-activating enzyme inhibition on WH244-mediated degradation of BCL-xL and BCL-2 [3]: abrogated
